Results from US10874743B2, “IRAK degraders and uses thereof” (Kymera Therapeutics, Inc., priority 2017, dated 2020).

Target: T1, IRAK4 (Homo sapiens, UniProt Q9NWZ3)
T1 sequence (Q9NWZ3 1-460): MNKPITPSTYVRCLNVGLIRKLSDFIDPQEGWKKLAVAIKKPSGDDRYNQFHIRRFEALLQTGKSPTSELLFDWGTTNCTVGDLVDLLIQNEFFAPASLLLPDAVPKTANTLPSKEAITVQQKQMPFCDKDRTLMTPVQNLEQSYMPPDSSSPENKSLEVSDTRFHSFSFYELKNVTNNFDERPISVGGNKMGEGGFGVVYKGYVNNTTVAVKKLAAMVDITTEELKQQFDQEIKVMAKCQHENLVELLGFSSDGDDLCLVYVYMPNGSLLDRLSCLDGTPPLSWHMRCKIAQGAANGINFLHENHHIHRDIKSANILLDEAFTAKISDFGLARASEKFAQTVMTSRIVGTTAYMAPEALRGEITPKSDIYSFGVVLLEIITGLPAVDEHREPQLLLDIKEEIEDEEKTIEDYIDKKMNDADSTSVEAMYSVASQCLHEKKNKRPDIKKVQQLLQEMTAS
Test: OCI-LY-10 degradation assay (western blot, % IRAK4 degraded after 4 hours)
Assay type: cell-based
Design: endogenous in cells; host or cells: OCI-LY10
Details: OCI-LY10 cells; for OCI-LY10 % IRAK4 Degradation: IRAK4 degraded after 4 hours, western blot; for OCI-LY10 % IRAK4 Degradation (0.01 uM) / OCI-LY10 % IRAK4 Degradation (0.1 uM) / OCI-LY10 % IRAK4 Degradation (1 uM): 4 hours; for OCI-LY10 % IRAK4 Degradation (0.01 uM): 0.01 uM compound; for OCI-LY10 % IRAK4 Degradation (0.1 uM): 0.1 uM compound; for OCI-LY10 % IRAK4 Degradation (1 uM): 1 uM compound
Method in brief: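 IRAK4 loss after 4 h at 37° C was scored A (>50%), B (>20-50%) or C (<20%) from infrared western blots of RIPA lysates, 20-25 μg protein per lane. Compound was applied at 0.003-10 μM final to OCI-LY10 cells cultured in RPMI-1640 with 20% FBS and 55 μM 2-ME.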

O=C1CCC(N2C(=O)c3cccc(NCCOCc4ccc(COCCNC(=O)[C@H]5CC[C@H](NC(=O)c6cnc(Nc7ccc8cnccc8n7)cc6NC6CC6)CC5)nc4)c3C2=O)C(=O)N1 (stereo partly shown) [I-41, 6-((1,6-naphthyridin-2-yl)amino)-4-(cyclopropylamino)-N-((1r,4r)-4-((2-((5-((2-((2-(2,6-dioxopiperidin-3-yl)-1,3-dioxoisoindolin-4-yl)amino)ethoxy)methyl)pyridin-2-yl)methoxy)ethyl)carbamoyl)cyclohexyl)nicotinamide]
OCI-LY10 % IRAK4 Degradation: C (<20% degradation)

CN(CCOCCOCCOCCOCCNc1cccc2c1C(=O)N(C1CCC(=O)NC1=O)C2=O)C(=O)[C@H]1CC[C@H](NC(=O)c2cnc(-n3ncc4cc(C#N)cnc43)cc2NC2CC2)CC1 (stereo partly shown) [I-38]
OCI-LY10 % IRAK4 Degradation: C (<20% degradation)

N#Cc1ccc2ncc(-c3cccc(NC4CCN(CCCCCOCCOCCCCCNC(=O)COc5cccc6c5C(=O)N(C5CCC(=O)NC5=O)C6=O)C4)n3)n2c1 (stereo not shown) [I-204]
OCI-LY10 % IRAK4 Degradation: C (<20% degradation)

CN(CCOCCCc1ccc2c(c1)C(=O)N(C1CCC(=O)NC1=O)C2=O)Cc1ccc(-n2cc(NC(=O)c3coc(-c4ccnc(NCC5CC5)c4)n3)c(C(F)F)n2)cc1 (stereo not shown) [I-376]
OCI-LY10 % IRAK4 Degradation (0.01 uM): B (>20-50% degradation)
OCI-LY10 % IRAK4 Degradation (0.1 uM): A (>50% degradation)
OCI-LY10 % IRAK4 Degradation (1 uM): A (>50% degradation)

NC(=O)c1nn(-c2ccc(COCC3CCCCN3CCOCCNc3cccc4c3C(=O)N(C3CCC(=O)NC3=O)C4=O)cc2)cc1NC(=O)c1coc(-c2ccnc(NCC(F)(F)F)c2)n1 (stereo not shown) [I-303, N-[3-carbamoyl-1-[4-[[1-[2-[2-[[2-(2,6-dioxo-3-piperidyl)-1,3-dioxo-isoindolin-4-yl]amino]ethoxy]ethyl]-2-piperidyl]methoxymethyl]phenyl]pyrazol-4-yl]-2-[2-(2,2,2-trifluoroethylamino)-4-pyridyl]oxazole-4-carboxamide]
OCI-LY10 % IRAK4 Degradation (0.01 uM): B (>20-50% degradation)
OCI-LY10 % IRAK4 Degradation (0.1 uM): A (>50% degradation)
OCI-LY10 % IRAK4 Degradation (1 uM): A (>50% degradation)

NC(=O)c1nn(-c2ccc(COCCOCCOCCNc3cccc4c3C(=O)N(C3CCC(=O)NC3=O)C4=O)cc2)cc1NC(=O)c1coc(-c2ccnc(NCC(F)(F)F)c2)n1 (stereo not shown) [I-92, N-[3-carbamoyl-1-[4-[2-[2-[2-[[2-(2,6-dioxo-3-piperidyl)-1,3-dioxo-isoindolin-4-yl]amino]ethoxy]ethoxy]ethoxymethyl]phenyl]pyrazol-4-yl]-2-[2-(2,2,2-trifluoroethylamino)-4-pyridyl]oxazole-4-carboxamide]
OCI-LY10 % IRAK4 Degradation: A (>50% degradation)

NC(=O)c1nn(-c2ccc(CNCCOCCOCCOCCOCC#Cc3cccc4c3C(=O)N(C3CCC(=O)NC3=O)C4=O)cc2)cc1NC(=O)c1coc(-c2ccnc(NCC(F)(F)F)c2)n1 (stereo not shown) [I-323]
OCI-LY10 % IRAK4 Degradation (0.01 uM): B (>20-50% degradation)
OCI-LY10 % IRAK4 Degradation (0.1 uM): A (>50% degradation)
OCI-LY10 % IRAK4 Degradation (1 uM): A (>50% degradation)

CC(C)(OCCNc1cccc2c1C(=O)N(C1CCC(=O)NC1=O)C2=O)C(F)CNC(=O)c1cnc(Nc2ccc3cnccc3n2)cc1NC1CC1 (stereo not shown) [I-74]
OCI-LY10 % IRAK4 Degradation: C (<20% degradation)

O=C1CCC(N2C(=O)c3cccc(CCCOCCNC(=O)c4ccc(-n5cc(NC(=O)c6coc(-c7ccnc(NCC8CC8)c7)n6)c(C(F)F)n5)cc4)c3C2=O)C(=O)N1 (stereo not shown) [I-243]
OCI-LY10 % IRAK4 Degradation (0.01 uM): C (<20% degradation)
OCI-LY10 % IRAK4 Degradation (0.1 uM): C (<20% degradation)
OCI-LY10 % IRAK4 Degradation (1 uM): C (<20% degradation)

NC(=O)[C@@H](O)C[C@H]1CCc2sc3ncnc(OC4CCC(N5CCN(C(=O)COCCOCCNc6cccc7c6C(=O)N(C6CCC(=O)NC6=O)C7=O)CC5)CC4)c3c21 (stereo partly drawn) [I-160, (2S)-3-[(8R)-1-[4-[4-[2-[2-[2-[[2-(2,6-dioxo-3-piperidyl)-1,3-dioxo-isoindolin-4-yl]amino]ethoxy]ethoxy]acetyl]piperazin-1-yl]cyclohexoxyl-7,8-dihydro-6H-cyclopenta[4,5]thieno 1,2-c]pyrimidin-8-yl]-2-hydroxy-propanamide]
OCI-LY10 % IRAK4 Degradation: C (<20% degradation)

O=C1CCC(N2C(=O)c3ccc(NCCOCCN4CCN(CCOCCNCc5ccc(-n6cc(NC(=O)c7coc(-c8ccnc(NCC9CC9)c8)n7)c(C(F)F)n6)cc5)CC4)cc3C2=O)C(=O)N1 (stereo not shown) [I-349]
OCI-LY10 % IRAK4 Degradation (0.01 uM): C (<20% degradation)
OCI-LY10 % IRAK4 Degradation (0.1 uM): B (>20-50% degradation)
OCI-LY10 % IRAK4 Degradation (1 uM): A (>50% degradation)

O=C1CCC(N2C(=O)c3cccc(NCCOCC(F)CNC(=O)c4cnc(Nc5ccc6cnccc6n5)cc4NC4CC4)c3C2=O)C(=O)N1 (stereo not shown) [I-81]
OCI-LY10 % IRAK4 Degradation: C (<20% degradation)

N#Cc1cnc2c(cnn2-c2cc(NC3CC3)c(C(=O)NCC(F)COCCOCCOCCOCCOCCNc3cccc4c3C(=O)N(C3CCC(=O)NC3=O)C4=O)cn2)c1 (stereo not shown) [I-57]
OCI-LY10 % IRAK4 Degradation: C (<20% degradation)

NC(=O)[C@@H](O)C[C@H]1CCc2sc3ncnc(O[C@H]4CC[C@H](N5CCN(C(=O)COCCNc6cccc7c6C(=O)N(C6CCC(=O)NC6=O)C7=O)CC5)CC4)c3c21 (stereo partly shown) [I-153]
OCI-LY10 % IRAK4 Degradation: C (<20% degradation)

CC(C)(OCCOCCOCCOCCOCCNc1cccc2c1C(=O)N(C1CCC(=O)NC1=O)C2=O)C(F)CNC(=O)c1cnc(Nc2ccc3cnccc3n2)cc1NC1CC1 (stereo not shown) [I-64]
OCI-LY10 % IRAK4 Degradation: C (<20% degradation)

N#Cc1cnc2c(cnn2-c2cc(NC3CC3)c(C(=O)N[C@H]3C[C@H](COCCOCCOCCOCCOCCNc4cccc5c4C(=O)N(C4CCC(=O)NC4=O)C5=O)C3)cn2)c1 (stereo partly shown) [I-36]
OCI-LY10 % IRAK4 Degradation: C (<20% degradation)

Cn1c(=O)n(C2CCC(=O)NC2=O)c2ccc(CCCOCCOCCNCc3ccc(-n4cc(NC(=O)c5coc(-c6ccnc(NCC(F)(F)F)c6)n5)c(C(N)=O)n4)cc3)cc21 (stereo not shown) [I-327]
OCI-LY10 % IRAK4 Degradation (0.01 uM): C (<20% degradation)
OCI-LY10 % IRAK4 Degradation (0.1 uM): B (>20-50% degradation)
OCI-LY10 % IRAK4 Degradation (1 uM): A (>50% degradation)

O=C1CCC(N2C(=O)c3cccc(NCCOCCN4CCO[C@H](CNC(=O)c5ccc(-n6cc(NC(=O)c7coc(-c8ccnc(NCC9CC9)c8)n7)c(C(F)F)n6)cc5)C4)c3C2=O)C(=O)N1 (stereo partly shown) [I-250]
OCI-LY10 % IRAK4 Degradation (0.01 uM): C (<20% degradation)
OCI-LY10 % IRAK4 Degradation (0.1 uM): A (>50% degradation)
OCI-LY10 % IRAK4 Degradation (1 uM): A (>50% degradation)

Cc1ncsc1-c1ccc(CNC(=O)[C@@H]2C[C@@H](O)CN2C(=O)[C@@H](NC(=O)COCCCCCCCCNC(=O)c2ccc(-n3cc(NC(=O)c4coc(-c5ccnc(NCC(F)(F)F)c5)n4)c(C(N)=O)n3)cc2)C(C)(C)C)cc1 [I-125, N-[3-carbamoyl-1-[4-[8-[2-[[(1S)-1-[(2S,4R)-4-hydroxy-2-[[4-(4-methylthiazol-5-yl)phenyl]methylcarbamoyl]pyrrolidine-1-carbonyl]-2,2-dimethyl-propyl]amino]-2-oxo-ethoxy]octylcarbamoyl]phenyl]pyrazol-4-yl]-2-[2-(2,2,2-trifluoroethylamino)-4-pyridyl]oxazole-4-carboxamide]
OCI-LY10 % IRAK4 Degradation: C (<20% degradation)

NC(=O)c1nn(-c2cccc(C(=O)NCCOCCOCCOCCOCCNc3cccc4c3C(=O)N(C3CCC(=O)NC3=O)C4=O)c2)cc1NC(=O)c1coc(-c2ccnc(NCC(F)(F)F)c2)n1 (stereo not shown) [I-136]
OCI-LY10 % IRAK4 Degradation: B (>20-50% degradation)

CN(CCOCCOCCNc1cccc2c1C(=O)N(C1CCC(=O)NC1=O)C2=O)C(=O)[C@H]1C[C@H](NC(=O)c2cnc(-n3ncc4cc(C#N)cnc43)cc2NC2CC2)C1 (stereo partly shown) [I-37]
OCI-LY10 % IRAK4 Degradation: C (<20% degradation)

O=C1CCC(N2C(=O)c3cccc(NCCOCCN4CCO[C@H](CNCc5ccc(-n6cc(NC(=O)c7coc(-c8ccnc(NCC9CC9)c8)n7)c(C(F)F)n6)cc5)C4)c3C2=O)C(=O)N1 (stereo partly shown) [I-329]
OCI-LY10 % IRAK4 Degradation (0.01 uM): B (>20-50% degradation)
OCI-LY10 % IRAK4 Degradation (0.1 uM): A (>50% degradation)
OCI-LY10 % IRAK4 Degradation (1 uM): A (>50% degradation)

Cn1c(=O)n(C2CCC(=O)NC2=O)c2ccc(CCCOCCOCCNC(=O)c3ccc(-n4cc(NC(=O)c5coc(-c6ccnc(NCC(F)(F)F)c6)n5)c(C(N)=O)n4)cc3)cc21 (stereo not shown) [I-248]
OCI-LY10 % IRAK4 Degradation (0.01 uM): B (>20-50% degradation)
OCI-LY10 % IRAK4 Degradation (0.1 uM): A (>50% degradation)
OCI-LY10 % IRAK4 Degradation (1 uM): A (>50% degradation)

O=C1CCC(N2C(=O)c3ccc(NC4CCN(CCOCCOCCNCc5ccc(-n6cc(NC(=O)c7coc(-c8ccnc(NCC9CC9)c8)n7)c(C(F)F)n6)cc5)CC4)cc3C2=O)C(=O)N1 (stereo not shown) [I-335]
OCI-LY10 % IRAK4 Degradation (0.01 uM): C (<20% degradation)
OCI-LY10 % IRAK4 Degradation (0.1 uM): C (<20% degradation)
OCI-LY10 % IRAK4 Degradation (1 uM): A (>50% degradation)

CC(OCCOCCOCCOCCNc1cccc2c1C(=O)N(C1CCC(=O)NC1=O)C2=O)C(F)CNC(=O)c1cnc(-n2ncc3cc(C#N)cnc32)cc1NC1CC1 (stereo not shown) [I-71]
OCI-LY10 % IRAK4 Degradation: C (<20% degradation)

NC(=O)c1nn(C2CN(CCOCCOCCOCCNc3cccc4c3C(=O)N(C3CCC(=O)NC3=O)C4=O)C2)cc1NC(=O)c1coc(-c2ccnc(NCC(F)(F)F)c2)n1 (stereo not shown) [I-169, N-[3-carbamoyl-1-[1-[2-[2-[2-[2-[[2-(2,6-dioxo-3-piperidyl)-1,3-dioxo-isoindolin-4-yl]amino]ethoxy]ethoxy]ethoxy]ethyl]azetidin-3-yl]pyrazol-4-yl]-2-[2-(2,2,2-trifluoroethylamino)-4-pyridyl]oxazole-4-carboxamide]
OCI-LY10 % IRAK4 Degradation: C (<20% degradation)
